# Results: PubChem BioAssay (NCI)
#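 Where inhibition never reached the appropriate level, the endpoint shown equals the highest concentration tested. Otherwise, values were interpolated linearly from a five-concentration, 48-hour dose response in 96-well plates. GI50 is the concentration that inhibits growth by half. TGI: total growth inhibition.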
# Experiments:
# Test in all cases: NCI-60 cell line screen, 48 h
# SK-OV-3 ovarian = system: SK-OV-3 ovarian
# NCI-H226 lung = system: NCI-H226 lung
# U251 CNS = system: U251 CNS
# HOP-62 NSCLC = system: HOP-62 NSCLC
# OVCAR-5 ovarian = system: OVCAR-5 ovarian
# EKVX NSCLC = system: EKVX NSCLC
# UACC-62 melanoma = system: UACC-62 melanoma
# HL-60(TB) leukemia = system: HL-60(TB) leukemia
# HCT-15 colon = system: HCT-15 colon
# HCT-116 colon = system: HCT-116 colon
# DU-145 prostate = system: DU-145 prostate
# NCI/ADR-RES ovarian = system: NCI/ADR-RES ovarian
# K-562 leukemia = system: K-562 leukemia
# SNB-19 CNS = system: SNB-19 CNS
# SK-MEL-5 melanoma = system: SK-MEL-5 melanoma
# ACHN renal = system: ACHN renal
# 786-0 renal = system: 786-0 renal
# SK-MEL-28 melanoma = system: SK-MEL-28 melanoma
# BT-549 breast = system: BT-549 breast
# OVCAR-4 ovarian = system: OVCAR-4 ovarian
# SNB-75 CNS = system: SNB-75 CNS
# SK-MEL-2 melanoma = system: SK-MEL-2 melanoma
# HT29 colon = system: HT29 colon
# NCI-H23 lung = system: NCI-H23 lung
# A498 renal = system: A498 renal
# NCI-H522 lung = system: NCI-H522 lung
# SN12C renal = system: SN12C renal
# RPMI-8226 leukemia = system: RPMI-8226 leukemia
# IGROV1 ovarian = system: IGROV1 ovarian
# NCI-H460 lung = system: NCI-H460 lung
# A549 NSCLC = system: A549 NSCLC
# RXF 393 renal = system: RXF 393 renal
# MOLT-4 leukemia = system: MOLT-4 leukemia
# HOP-92 NSCLC = system: HOP-92 NSCLC
# LOX IMVI melanoma = system: LOX IMVI melanoma
# PC-3 prostate = system: PC-3 prostate
# MDA-MB-435 = system: MDA-MB-435
# MALME-3M melanoma = system: MALME-3M melanoma
# HCC-2998 colon = system: HCC-2998 colon
# SF-268 CNS = system: SF-268 CNS
# UO-31 renal = system: UO-31 renal
# CAKI-1 renal = system: CAKI-1 renal
# SR leukemia = system: SR leukemia
# COLO 205 colon = system: COLO 205 colon
# OVCAR-3 ovarian = system: OVCAR-3 ovarian
# MCF7 breast = system: MCF7 breast
# CCRF-CEM leukemia = system: CCRF-CEM leukemia
# HS 578T breast = system: HS 578T breast
# MDA-MB-231 breast = system: MDA-MB-231 breast
# KM12 colon = system: KM12 colon
# T-47D breast = system: T-47D breast
# UACC-257 melanoma = system: UACC-257 melanoma
# SF-539 CNS = system: SF-539 CNS
# M14 melanoma = system: M14 melanoma
# SW-620 colon = system: SW-620 colon
# OVCAR-8 ovarian = system: OVCAR-8 ovarian
# TK-10 renal = system: TK-10 renal
# SF-295 CNS = system: SF-295 CNS
structure (smiles),measurement,setting,value
O=C1NC(=S)S/C1=C\c1cn(-c2ccccc2)nc1-c1ccccc1,GI50,SK-OV-3 ovarian,11.9 µM
same,TGI,SK-OV-3 ovarian,42.2 µM
same,GI50,NCI-H226 lung,20.3 µM
same,TGI,NCI-H226 lung,76.5 µM
same,GI50,U251 CNS,5.54 µM
same,TGI,U251 CNS,21.2 µM
same,GI50,HOP-62 NSCLC,22.7 µM
same,TGI,HOP-62 NSCLC,68.4 µM
same,GI50,OVCAR-5 ovarian,14.3 µM
same,TGI,OVCAR-5 ovarian,29.6 µM
same,GI50,EKVX NSCLC,3.03 µM
same,TGI,EKVX NSCLC,23.6 µM
same,GI50,UACC-62 melanoma,3.36 µM
same,TGI,UACC-62 melanoma,15.1 µM
same,GI50,HL-60(TB) leukemia,4.83 µM
same,TGI,HL-60(TB) leukemia,59.8 µM
same,GI50,HCT-15 colon,4.71 µM
same,TGI,HCT-15 colon,23.2 µM
same,GI50,HCT-116 colon,5.62 µM
same,TGI,HCT-116 colon,21.3 µM
same,GI50,DU-145 prostate,12.6 µM
same,TGI,DU-145 prostate,> 100 µM
same,GI50,NCI/ADR-RES ovarian,4.8 µM
same,TGI,NCI/ADR-RES ovarian,> 100 µM
same,GI50,K-562 leukemia,7.54 µM
same,TGI,K-562 leukemia,> 100 µM
same,GI50,SNB-19 CNS,6.14 µM
same,TGI,SNB-19 CNS,> 100 µM
same,GI50,SK-MEL-5 melanoma,3.19 µM
same,TGI,SK-MEL-5 melanoma,14.2 µM
same,GI50,ACHN renal,7.4 µM
same,TGI,ACHN renal,21.4 µM
same,GI50,786-0 renal,3.92 µM
same,TGI,786-0 renal,28.5 µM
same,GI50,SK-MEL-28 melanoma,9.22 µM
same,TGI,SK-MEL-28 melanoma,> 100 µM
same,GI50,BT-549 breast,5.2 µM
same,TGI,BT-549 breast,23.7 µM
same,GI50,OVCAR-4 ovarian,8.14 µM
same,TGI,OVCAR-4 ovarian,> 100 µM
same,GI50,SNB-75 CNS,17.8 µM
same,TGI,SNB-75 CNS,51.3 µM
same,GI50,SK-MEL-2 melanoma,4.18 µM
same,TGI,SK-MEL-2 melanoma,19.4 µM
same,GI50,HT29 colon,12.5 µM
same,TGI,HT29 colon,38.3 µM
same,GI50,NCI-H23 lung,2.68 µM
same,TGI,NCI-H23 lung,15.9 µM
same,GI50,A498 renal,2.99 µM
same,TGI,A498 renal,18.2 µM
same,GI50,NCI-H522 lung,2.96 µM
same,TGI,NCI-H522 lung,55.1 µM
same,GI50,SN12C renal,9.93 µM
same,TGI,SN12C renal,> 100 µM
same,GI50,RPMI-8226 leukemia,2.52 µM
same,TGI,RPMI-8226 leukemia,68.6 µM
same,GI50,IGROV1 ovarian,13.9 µM
same,TGI,IGROV1 ovarian,38.9 µM
same,GI50,NCI-H460 lung,5.5 µM
same,TGI,NCI-H460 lung,19.2 µM
same,GI50,A549 NSCLC,5.88 µM
same,TGI,A549 NSCLC,> 100 µM
same,GI50,RXF 393 renal,22.4 µM
same,TGI,RXF 393 renal,65.2 µM
same,GI50,MOLT-4 leukemia,14.8 µM
same,TGI,MOLT-4 leukemia,> 100 µM
same,GI50,HOP-92 NSCLC,0.623 µM
same,TGI,HOP-92 NSCLC,5.34 µM
same,GI50,LOX IMVI melanoma,10 µM
same,TGI,LOX IMVI melanoma,55.4 µM
same,GI50,PC-3 prostate,5.66 µM
same,TGI,PC-3 prostate,> 100 µM
same,GI50,MDA-MB-435,4.91 µM
same,TGI,MDA-MB-435,36.6 µM
same,GI50,MALME-3M melanoma,3.84 µM
same,TGI,MALME-3M melanoma,13.1 µM
same,GI50,HCC-2998 colon,6.05 µM
same,TGI,HCC-2998 colon,47.1 µM
same,GI50,SF-268 CNS,17.2 µM
same,TGI,SF-268 CNS,> 100 µM
same,GI50,UO-31 renal,4.39 µM
same,TGI,UO-31 renal,25.2 µM
same,GI50,CAKI-1 renal,7.14 µM
same,TGI,CAKI-1 renal,51.8 µM
same,GI50,SR leukemia,7.29 µM
same,TGI,SR leukemia,49.7 µM
same,GI50,COLO 205 colon,21.2 µM
same,TGI,COLO 205 colon,75.8 µM
same,GI50,OVCAR-3 ovarian,11.6 µM
same,TGI,OVCAR-3 ovarian,29 µM
same,GI50,MCF7 breast,8.31 µM
same,TGI,MCF7 breast,94.1 µM
same,GI50,CCRF-CEM leukemia,2.5 µM
same,TGI,CCRF-CEM leukemia,69.8 µM
same,GI50,HS 578T breast,6.03 µM
same,TGI,HS 578T breast,43.6 µM
same,GI50,MDA-MB-231 breast,10.1 µM
same,TGI,MDA-MB-231 breast,33.3 µM
same,GI50,KM12 colon,6.24 µM
same,TGI,KM12 colon,21.7 µM
same,GI50,T-47D breast,4.59 µM
same,TGI,T-47D breast,32.6 µM
same,GI50,UACC-257 melanoma,13.2 µM
same,TGI,UACC-257 melanoma,73.9 µM
same,GI50,SF-539 CNS,5.53 µM
same,TGI,SF-539 CNS,21.1 µM
same,GI50,M14 melanoma,6.75 µM
same,TGI,M14 melanoma,80.2 µM
same,GI50,SW-620 colon,19.6 µM
same,TGI,SW-620 colon,> 100 µM
same,GI50,OVCAR-8 ovarian,11.4 µM
same,TGI,OVCAR-8 ovarian,> 100 µM
same,GI50,TK-10 renal,8 µM
same,TGI,TK-10 renal,85.2 µM
same,GI50,SF-295 CNS,3.33 µM
same,TGI,SF-295 CNS,17.2 µM
